Test results taken from publication PMC5078989, “Targeted inhibition of the COP9 signalosome for treatment of cancer” (Nature Communications, 2016).

Tested on: panel of cancer cell lines
Test: Cell viability (CellTiter-Glo) dose-response across cancer cell line panel;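 as to EC50: after 72 h compound incubation with CellTiter-Glo ATP readout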
Assay type: cell-based, human
Conditions: for EC50: Homo sapiens
Excerpt: Next, we explored the effect of CSN5 inhibition on the viability of cancer cells. To obtain a comprehensive picture, we generated dose–response curves with a CSN5 inhibitor across more than 500 cancer cell lines in a previously described standardized setting[47] (Supplementary Data 1).
A standardized CellTiter-Glo Assay (Promega #G7570) based on the quantification of ATP was applied according to the manufacturer's protocol to measure the amount of viable cells in culture. In brief, cells were seeded into 384-well plates at optimal density for each cell line. After 4 h, compounds were added at different concentrations in growth medium and incubated for another 72 h in a humidifying chamber at 37 °C and 5% CO2. […] EC50 values were calculated from the plot of percentage of inhibition versus inhibitor concentration using the nonlinear regression analysis software Origin 7.5SR6 (OriginLab Corp.).

COCc1ccccc1NCc1ccc([C@@H]2[C@H](O)CCCc3cncn32)c(-c2ccccc2Cl)c1 [CSN5i-2e, (5R,6R)-5-(2′-chloro-5-(((2-(methoxymethyl)phenyl)amino)methyl)-[1,1′-biphenyl]-2-yl)-6,7,8,9-tetrahydro-5H-imidazo[1,5-a]azepin-6-ol]
EC50 (SNU-685 cells): > 30 µM | EC50 (SNU-738 cells): 14.6 µM | EC50 (SNU-761 cells): 11.3 µM | EC50 (SNU-1040 cells): 18.9 µM | EC50 (SNU-1079 cells): 13.1 µM | EC50 (SNU-C1, SNU-C1 cells): 17.8 µM | EC50 (SNU-C2A cells): 10.7 µM | EC50 (SNU-C4, SNU-C4 cells): 13.7 µM | EC50 (SNU-C5 cells): 8.36 µM | EC50 (SR-786, SR-786 cells): 11.4 µM | EC50 (SU-DHL10, SU-DHL-10 cells): 5.76 µM | EC50 (SU-DHL-4, SU-DHL-4 cells): 10.9 µM | EC50 (SU-DHL-5, SU-DHL-5 cells): 4.35 µM | EC50 (SU-DHL-6, SU-DHL-6 cells): 6.01 µM | EC50 (SU-DHL-8, SU-DHL-8 cells): 6.55 µM | EC50 (SU.86.86, SU.86.86 cells): 10.8 µM | EC50 (SUM44PE cells): 26.1 µM | EC50 (SUM52PE, SUM52PE cells): 3.38 µM | EC50 (SUM149PT, SUM149PT cells): 10.6 µM | EC50 (SUM-159-PT, SUM159PT cells): 11.1 µM | EC50 (SUP-T1, SUP-T1 cells): 10.1 µM | EC50 (SW48, SW48 cells): 12.2 µM | EC50 (SW480, SW480 cells): 9.61 µM | EC50 (SW982, SW982 cells): 11.4 µM | EC50 (SW1088, SW 1088 cells): 10.6 µM | EC50 (SW1271, SW 1271 cells): 18.7 µM | EC50 (SW1573, SW 1573 cells): 9.37 µM | EC50 (SW1783, SW 1783 cells): > 30 µM | EC50 (SW-403, SW403 cells): 23.8 µM | EC50 (SW-620, SW620 cells): 21.8 µM | EC50 (SYO-1 cells): 11.2 µM | EC50 (Sq-1 cells): 11.8 µM | EC50 (T3M4, T3M-4 cells): 18.8 µM | EC50 (T47D, T-47D cells): 7.39 µM | EC50 (TANOUE cells): 6.4 µM | EC50 (TC-71, TC-71 cells): 9.61 µM | EC50 (TCC-PAN2 cells): 28.9 µM | EC50 (TE-6, TE-6 cells): 14 µM | EC50 (TE-11, TE-11 cells): 10.7 µM | EC50 (TE-15, TE-15 cells): 15.1 µM | EC50 (TF-1, TF-1 cells): 8.75 µM | EC50 (THP-1, THP-1 cells): 5.46 µM | EC50 (TYK-nu cells): 10.6 µM | EC50 (U266B1 cells): 9.53 µM | EC50 (U-118-MG, U-118 MG cells): 25.3 µM | EC50 (U-937, U-937 cells): 7.39 µM | EC50 (UACC-62, UACC-62 cells): 13.9 µM | EC50 (UACC-257, UACC-257 cells): 11.2 µM | EC50 (UCH1, UCH-1 cells): 14.7 µM | EC50 (UKE1, UKE1 cells): 9.11 µM | EC50 (VM-CUB-1, VM-CUB1 cells): 4.45 µM | EC50 (VMRC-LCD cells): 11 µM | EC50 (VMRC-RCW cells): 11.9 µM | EC50 (WM 266-4, WM-266-4 cells): 17.1 µM | EC50 (WM983B, WM-983B cells): 9.66 µM | EC50 (WM-88 cells): 13.6 µM | EC50 (WM-115, WM-115 cells): 7.37 µM | EC50 (WSU-WM cells): 7.7 µM | EC50 (YAPC, YAPC cells): 11.5 µM | AMAX (Hs 695T cells): -86.8488 | AMAX (Hs 936.T cells): -93.4541 | AMAX (HuG1-N cells): -87.0263 | AMAX (HuH-7 cells): -97.6516 | AMAX (IGR-37 cells): -77.0355 | AMAX (IGROV1 cells): -71.2355 | AMAX (IPC-298 cells): -72.365 | AMAX (Ishikawa cells): -88.4272 | AMAX (J82 cells): -35.798 | AMAX (JHH-4 cells): -90.0924 | AMAX (JHOS-2 cells): -45.7705 | AMAX (JHUEM-2 cells): -96.4199 | AMAX (JHUEM-3 cells): -54.8666 | AMAX (JL-1 cells): -68.6834 | AMAX (JVM-2 cells): -97.127 | AMAX (KARPAS-422 cells): -93.641 | AMAX (KATO III cells): -77.3764 | AMAX (KBM-7 cells): -97.1328 | AMAX (KE-97 cells): -93.3813 | AMAX (KMRC-1 cells): -75.0974 | AMAX (KP-1N cells): -76.285 | AMAX (KP-2 cells): -93.6503 | AMAX (KP-3 cells): -72.8527 | AMAX (KU-19-19 cells): -88.0441 | AMAX (KYSE-150 cells): -68.4693 | AMAX (KYSE-180 cells): -91.1186 | AMAX (Kasumi3 cells): -95.9336 | AMAX (L-363 cells): -92.1173 | AMAX (LC2/ad cells): -70.6199 | AMAX (LCLC-103H cells): -71.5681 | AMAX (MFE-280 cells): -75.2715 | AMAX (MM138 cells): -91.9111 | AMAX (MM415 cells): -83.1051 | AMAX (MM426 cells): -57.5258 | AMAX (MM485 cells): -82.1717 | AMAX (MM537 cells): -84.9338 | AMAX (MOLT-16 cells): -96.4687 | AMAX (MeWo cells): -73.0371 | AMAX (NB-1 cells): -97.6901 | AMAX (NCI-H82 cells): -96.2323 | AMAX (NCI-H146 cells): -95.028 | AMAX (NCI-H322 cells): -82.8728 | AMAX (NCI-H441 cells): -78.9188 | AMAX (NCI-H810 cells): -2.884 | AMAX (NCI-H841 cells): -94.3751 | AMAX (NCI-H1373 cells): -93.5484 | AMAX (NCI-H1568 cells): -98.9282 | AMAX (NCI-H1755 cells): -88.1389 | AMAX (NCI-H2023 cells): -87.7102 | AMAX (NCI-H2087 cells): -85.0078 | AMAX (NCI-H2452 cells): -48.2134 | AMAX (ONCO-DG-1 cells): -95.499 | AMAX (OUMS-23 cells): -91.7164 | AMAX (OV56 cells): -92.0115 | AMAX (P3HR-1 cells): -92.6521 | AMAX (P12-ICHIKAWA cells): -96.1728 | AMAX (PA-TU-8988T cells): -59.6796 | AMAX (PANC-1 cells): -78.7196 | AMAX (PC-3 cells): -66.4355 | AMAX (PE/CA-PJ49 cells): -89.0883 | AMAX (PF-382 cells): -96.9256 | AMAX (Panc 03.27 cells): -56.1495 | AMAX (Panc 04.03 cells): -74.9732 | AMAX (Panc 10.05 cells): -81.9961 | AMAX (RD-ES cells): -95.6768 | AMAX (RT-112 cells): -70.4236 | AMAX (SEM cells): -91.5844 | AMAX (SF-268 cells): -46.326 | AMAX (SK-ES-1 cells): -87.9534 | AMAX (SK-MEL-3 cells): -63.3656
